Experimental data as given in patent publication US20240116857A1 (St. Louis University, priority 2022, published 2024).
In brackets after ≈: the same amount, converted by molar mass.

The compounds below were run on E. coli BW25113 (assay: MIC, 2-fold broth dilution, E. coli BW25113). Settings: E. coli BW25113; asterisk in column >50.
Format: cell-based, Escherichia coli

Row | Compound | MIC, μM >50
1 | 4,4′-(([1,1′-biphenyl]-4,4′-dicarbonyl)bis(azanediyl))bis(3-hydroxy-N,N,N-trimethylbenzenaminium) [Example 57] | * (>50)

Same assay, conditions: Escherichia coli; E. coli BW25113; asterisk in column 1-10; read-out: MIC, μM 1-10

Row | Compound | MIC
2 | C[n+]1ccc(Nc2ccc(NC(=O)c3ccc(C(=O)Nc4ccc(Nc5cc[n+](C)cc5)cc4)c(F)c3)cc2)cc1 [Example 58, 4,4′-((((2-fluoroterephthaloyl)bis(azanediyl))bis(4,1-phenylene))bis(azanediyl))bis(1-methylpyridin-1-ium)] | 1 to 10 µM
3 | CN(C)c1ccc(NC(=O)c2ccc(-c3ccc(C(=O)Nc4ccc(N5CCCCC5)c(F)c4)cc3)cc2)cc1F [Example 143] | 1 to 10 µM (≈ 0.555 to 5.55 µg/mL)
4 | C[n+]1ccc(-c2ccc(NC(=O)c3ccc(C(=O)Nc4ccc(-c5cc[n+](C)cc5)cc4)cc3)cc2)cc1 [Example 56] | 1 to 10 µM
5 | COc1cc(NC(=O)c2ccc(-c3ccc(C(=O)Nc4ccc(N5CCCCC5)cc4)cc3)cc2)ccc1N(C)C [Example 128] | 1 to 10 µM (≈ 0.549 to 5.49 µg/mL)
6 | C#CCCCCOc1cc(NC(=O)c2ccc(-c3ccc(C(=O)Nc4ccc([N+](C)(C)C)c(F)c4)cc3)cc2)ccc1[N+](C)(C)C [Example 96, 2-fluoro-4-(4′-((3-(hex-5-yn-1-yloxy)-4-(trimethylammonio)phenyl)carbamoyl)-[1,1′-biphenyl]-4-carboxamido)-N,N,N-trimethylbenzenaminium] | 1 to 10 µM
7 | C[n+]1ccc(Nc2ccc(NC(=O)c3ccc(Cc4ccc(C(=O)Nc5ccc(Nc6cc[n+](C)cc6)cc5)cc4)cc3)cc2)cc1 [Example 52, 4,4′-((((4,4′-methylenebis(benzoyl))bis(azanediyl))bis(4,1-phenylene))bis(azanediyl))bis(1-methylpyridin-1-ium)] | 1 to 10 µM
8 | C[N+](C)(C)c1ccc(NC(=O)c2ccc(-c3ccc(C(=O)Nc4ccc([N+](C)(C)C)c(N)c4)cc3C#N)cc2)cc1 [Example 153] | 1 to 10 µM

Same assay, conditions: Escherichia coli; E. coli BW25113; asterisk in column 10-50; read-out: MIC, μM 10-50

Row | Compound | MIC
9 | C[n+]1ccc(Oc2ccc(NC(=O)c3ccc(C(=O)Nc4ccc(Oc5cc[n+](C)cc5)cc4)c([N+](=O)[O-])c3)cc2)cc1 [Example 84, 4,4′-((((2-nitroterephthaloyl)bis(azanediyl))bis(4,1-phenylene))bis(oxy))bis(1-methylpyridin-1-ium)] | 10 to 50 µM
10 | C[N+](C)(C)c1ccc(NC(=O)c2ccc(-c3ccc(C(=O)Nc4ccc([N+](C)(C)C)cc4)cc3)cc2)cc1 [Example 23, 4,4′-(([1,1′-biphenyl]-4,4′-dicarbonyl)bis(azanediyl))bis(N,N,N-trimethylbenzenaminium)] | 10 to 50 µM

Same assay, conditions: Escherichia coli; E. coli BW25113; asterisk in column >50; read-out: MIC, μM >50

Row | Compound | MIC
11 | C[N+](C)(C)c1ccc(NC(=O)c2ccc(-c3ccc(C(=O)Nc4ccc([N+](C)(C)C)c([N+](=O)[O-])c4)cc3)c(S(C)(=O)=O)c2)cc1 [Example 146] | > 50 µM
12 | CN(C)c1ccc(NC(=O)c2ccc(-c3ccc(C(=O)Nc4ccc(N(C)C)c(C#N)c4)cc3C#N)cc2)cc1 [Example 149] | > 50 µM
13 | COC(=O)Cn1cc(CCOc2cc(NC(=O)c3ccc(-c4ccc(C(=O)Nc5ccc([N+](C)(C)C)c(F)c5)cc4)cc3)ccc2[N+](C)(C)C)nn1 [Example 107] | > 50 µM
14 | C#CCCCCN(C)c1ccc(NC(=O)c2ccc(-c3ccc(C(=O)Nc4ccc(N(C)C)c(F)c4)cc3)cc2)cc1F [Example 126] | > 50 µM
15 | C#CCCCOc1cc(NC(=O)c2ccc(-c3ccc(C(=O)Nc4ccc([N+](C)(C)C)c(F)c4)cc3)cc2)ccc1[N+](C)(C)C [Example 122] | > 50 µM
16 | C[N+](C)(C)c1ccc(NC(=O)c2ccc(-c3ccc(C(=O)Nc4ccc([N+](C)(C)C)c(Cl)c4)cc3)cc2)cc1F [Example 131] | > 50 µM
17 | O=C(Nc1ccncc1)c1ccc2cc(C(=O)Nc3ccncc3)ccc2c1 [Example 3, N^2,N^6-di(pyridin-4-yl)naphthalene-2,6-dicarboxamide] | > 50 µM
18 | C#CCCN(C)c1ccc(NC(=O)c2ccc(-c3ccc(C(=O)Nc4ccc(N(C)C)c(F)c4)cc3)cc2)cc1F [Example 139] | > 50 µM
19 | CN(C)C1CCC(NC(=O)c2ccc(-c3ccc(C(=O)NC4CCC(N(C)C)CC4)cc3)cc2)CC1 (stereo not shown) [Example 46, N^4,N^4′-bis(4-(dimethylamino)cyclohexyl)-[1,1′-biphenyl]-4,4′-dicarboxamide] | > 50 µM
20 | C[n+]1ccc(NC(=O)c2ccc3cc(C(=O)Nc4cc[n+](C)cc4)ccc3c2)cc1 [Example 4, 4,4′-((naphthalene-2,6-dicarbonyl)bis(azanediyl))bis(1-methylpyridin-1-ium)] | > 50 µM
21 | C#CCCCN(C)c1ccc(NC(=O)c2ccc(-c3ccc(C(=O)Nc4ccc(N(C)C)c(F)c4)cc3)cc2)cc1F [Example 124] | > 50 µM
22 | C[N+](C)(C)c1ccc(NC(=O)c2ccc(-c3ccc(C(=O)Nc4ccc([N+](C)(C)C)c(C(F)(F)F)c4)cc3)cc2)cc1C(F)(F)F [Example 82, 4,4′-(([1,1′-biphenyl]-4,4′-dicarbonyl)bis(azanediyl))bis(N,N,N-trimethyl-2-(trifluoromethyl)benzenaminium)] | > 50 µM
23 | O=C(Nc1ccc(Nc2ccncc2)cc1)c1ccc(-c2ccccc2)cc1 [Example 15, N-(4-(pyridin-4-ylamino)phenyl)-[1,1′-biphenyl]-4-carboxamide] | > 50 µM
24 | Cc1cc(Nc2cc[n+](C)cc2)ccc1NC(=O)c1ccc(C(=O)Nc2cc[n+](C)cc2)cc1 [Example 67, 1-methyl-4-(4-((2-methyl-4-((1-methylpyridin-1-ium-4-yl)amino)phenyl)carbamoyl)benzamido)pyridin-1-ium] | > 50 µM
25 | O=C(Nc1ccc(Nc2ccncc2)cc1)c1ccc(C(=O)Nc2ccc(Nc3ccncc3)cc2)c(C(F)(F)F)c1 [Example 41, N^1,N^4-bis(4-(pyridin-4-ylamino)phenyl)-2-(trifluoromethyl)terephthalamide] | > 50 µM
26 | O=C(Nc1ccc(Nc2ccncc2)cc1)c1ccc(C(=O)Nc2ccc(Nc3ccncc3)cc2)cc1 [Example 9, N^1,N^4-bis(4-(pyridin-4-ylamino)phenyl)terephthalamide] | > 50 µM
27 | O=C(Nc1ccncc1)c1ccc(-c2ccc(C(=O)Nc3ccncc3)cc2)cc1 [Example 7, N^4,N^4′-di(pyridin-4-yl)-[1,1′-biphenyl]-4,4′-dicarboxamide] | > 50 µM

Row | Compound | MIC
28 | CN(C)c1ccc(NC(=O)c2ccc(-c3ccc(C(=O)Nc4ccc(N(C)C)c(F)c4)cc3)cc2)cc1 [Example 112] | > 50 µM
29 | COc1cc(NC(=O)c2ccc(-c3ccc(C(=O)Nc4ccc([N+]5(C)CCCCC5)cc4)cc3)cc2)ccc1[N+](C)(C)C [Example 145] | > 50 µM
30 | CN(C)c1ccc(NC(=O)c2ccc(-c3ccc(C(=O)Nc4ccc(N5CCCCC5)cc4)cc3)cc2)cc1F [Example 111] | > 50 µM
31 | COC(=O)Cn1cc(C[N+](C)(C)c2ccc(NC(=O)c3ccc(-c4ccc(C(=O)Nc5ccc([N+](C)(C)C)c(F)c5)cc4)cc3)cc2F)nn1 [Example 108] | > 50 µM
32 | C[N+](C)(C)c1ccc(NC(=O)c2ccc(Cc3ccc(C(=O)Nc4ccc([N+](C)(C)C)cc4)cc3)cc2)cc1 [Example 53] | > 50 µM
33 | COc1cc(Nc2cc[n+](C)cc2)ccc1NC(=O)c1ccc(C(=O)Nc2cc[n+](C)cc2)cc1 [Example 63, 4-(4-((2-methoxy-4-((1-methylpyridin-1-ium-4-yl)amino)phenyl)carbamoyl)benzamido)-1-methylpyridin-1-ium] | > 50 µM
34 | COc1cc(NC(=O)c2ccc(-c3ccc(C(=O)Nc4ccc(N(C)C)c(F)c4)cc3)cc2)ccc1N(C)C [Example 97, N^4-(4-(dimethylamino)-3-fluorophenyl)-N^4′-(4-(dimethylamino)-3-methoxyphenyl)-[1,1′-biphenyl]-4,4′-dicarboxamide] | > 50 µM
35 | C[n+]1ccccc1Nc1ccc(NC(=O)c2ccc(C(=O)Nc3ccc(Nc4cccc[n+]4C)cc3)cc2)cc1 [Example 14, 2,2′-(((terephthaloylbis(azanediyl))bis(4,1-phenylene))bis(azanediyl))bis(1-methylpyridin-1-ium)] | > 50 µM
36 | C#CCN(C)c1ccc(NC(=O)c2ccc(-c3ccc(C(=O)Nc4ccc(N(C)C)c(F)c4)cc3)cc2)cc1F [Example 93, N^4-(4-(dimethylamino)-3-fluorophenyl)-N^4′-(3-fluoro-4-(methyl(prop-2-yn-1-yl)amino)phenyl)-[1,1′-biphenyl]-4,4′-dicarboxamide] | > 50 µM
37 | COc1cc(N(C)C)ccc1NC(=O)c1ccc(-c2ccc(C(=O)Nc3ccc(N(C)C)cc3OC)cc2)cc1 [Example 31, N^4,N^4′-bis(4-(dimethylamino)-2-methoxyphenyl)-[1,1′-biphenyl]-4,4′-dicarboxamide] | > 50 µM
38 | Cc1cc(NC(=O)c2ccc(-c3ccc(C(=O)Nc4ccnc(C)c4)cc3)cc2)ccn1 [Example 27, N^4,N^4′-bis(2-methylpyridin-4-yl)-[1,1′-biphenyl]-4,4′-dicarboxamide] | > 50 µM
39 | Cc1cc(NC(=O)c2ccc(C(=O)Nc3ccncc3)cc2)ccc1Nc1ccncc1 [Example 64, N^1-(3-methyl-4-(pyridin-4-ylamino)phenyl)-N^4-(pyridin-4-yl)terephthalamide] | > 50 µM
40 | C[N+](C)(C)c1ccc(NC(=O)c2ccc(-c3ccc(C(=O)Nc4ccc([N+](C)(C)C)c(OCCc5cn(CCOCCOCCOCCNC(=O)CCCC[C@@H]6SC[C@@H]7NC(=O)N[C@@H]76)nn5)c4)cc3)cc2)cc1F [Example 138] | > 50 µM
41 | O=S(=O)(Nc1ccncc1)c1ccc(-c2ccc(S(=O)(=O)Nc3ccncc3)cc2)cc1 [Example 26, N^4,N^4′-di(pyridin-4-yl)-[1,1′-biphenyl]-4,4′-disulfonamide] | > 50 µM
42 | CN(C)c1ccc(NC(=O)c2ccc(-c3ccc(C(=O)Nc4ccc(N(C)C)cc4)cc3)cc2)cc1 [Example 22, N^4,N^4′-bis(4-(dimethylamino)phenyl)-[1,1′-biphenyl]-4,4′-dicarboxamide] | > 50 µM
43 | O=C(Nc1ccc(Nc2ccncc2)cc1)[C@H]1CC[C@H](C(=O)Nc2ccc(Nc3ccncc3)cc2)CC1 [Example 60, (E)-N^1,N^4-bis(4-(pyridin-4-ylamino)phenyl)cyclohexane-1,4-dicarboxamide] | > 50 µM
